This is an account of results in patent publication US11560400B2, “Salts of diphosphate phosphoramidate of nucleosides as anticancer compounds” (NuCana plc, priority 2017, dated 2023).

Broadly, the EC50 is the concentration needed to bring the measured effect to its halfway point. What is called half-life is how long it takes for the measured level to halve.

One series has as its system MOLT-4. As to the kind of experiment: CellTiterGlo cell viability assay, MOLT-4. It counts as cell-based. Conditions: Homo sapiens, MOLT-4, 72 h; for inhibition at 198 µM: percentage inhibition at the highest concentration tested, read-out: Top Inh; for EC50: read-out: Ab EC50. A digest of the protocol:
(§1)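 Cells are exposed to compounds for 72 h at final concentrations of 198 μM down to 19.8 nM in 0.5% DMSO, then viability is quantified with CellTiterGlo.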
On the technique in general: ATP-based viability assays read luminescence as a measure of living cells.

In another series the test system is HL-60. As to the kind of experiment: CellTiterGlo cell viability assay, HL-60. It counts as cell-based. The conditions noted are these: Homo sapiens, HL-60, 72 h; for EC50: read-out: Ab EC50; for inhibition at 198 µM: percentage inhibition at the highest concentration tested, read-out: Top Inh. A digest of the protocol: as §1
In the next series the test system is K562. As to the kind of experiment: CellTiterGlo cell viability assay, K562. It counts as cell-based. The conditions noted are these: Homo sapiens, K562, 72 h; for inhibition at 198 µM: percentage inhibition at the highest concentration tested, read-out: Top Inh; for EC50: read-out: Ab EC50. A digest of the protocol:
as §1

The test system of the next series is HepG2. Briefly: CellTiterGlo cell viability assay, HepG2. In kind it is cell-based. The conditions noted are these: Homo sapiens, HepG2, 72 h; for EC50: absolute EC50, numeric values, read-out: Ab EC50; for inhibition at 198 µM: percentage inhibition at the highest concentration tested, read-out: Top Inhibit. The essentials: as §1
The test system of another series is HT29. As to the kind of experiment: CellTiterGlo cell viability assay, HT29. In kind it is cell-based. Conditions: Homo sapiens, HT-29, 72 h, HT29, 72 h; for EC50: read-out: Ab EC50; for inhibition at 198 µM: percentage inhibition at the highest concentration tested, read-out: Top Inhibit. The essentials:
as §1

The subject of the next series is Mia-Pa-Ca-2. Briefly: CellTiterGlo cell viability assay, Mia-Pa-Ca-2. It counts as cell-based. The conditions noted are these: Homo sapiens, MIA PaCa-2, Mia-Pa-Ca-2, 72 h; for EC50: absolute EC50, read-out: Ab EC50; for inhibition at 198 µM: percentage inhibition at the highest concentration tested, read-out: Top Inhibit. The procedure:
A subset of compounds of the invention were assayed for their cytotoxic activity in an array of different solid tumours and haematological malignancies using the following assay.
In vitro viability assay were performed to assess the effects of compounds on cell viability in selected cell lines over 72 h using the CellTiterGlo (CTG, Promega-G7573) assay. The tests were performed in duplicates with treatment of compounds at 9 points, 3.16 folds titration in 96 well plates over ˜72 h. The compound starting concentrations were 198 μM. Cell viability assay using CellTiterGlo in 96-well plate were performed. Compound treatment 72 h, standard growth conditions, duplicates. Compounds were dissolved to 40 mM with thawed […]. Compounds were serially diluted at 3.16 fold in thawed DMSO, and warmed to 37° C. before being dissolved in media (2 μL+200 μL). After compounds were dissolved in media, media containing compounds were warmed to 37° C. in incubator and then compounds in media were added to cell plates (50 μL+50 μL) in duplicates. The compounds' final concentrations were from 198 μM to 19.8 nM. All compound solubilities were checked and recorded again, then the plates were transferred to CO2 tissue culture incubator immediately and incubated for 3 days. DMSO final concentration is 0.5%. The parent nucleoside in each case was tested as a comparator, as was an exemplary ProTide. The drugs of the ProTide class that were tested were as follows:
The following cell lines were tested and are referred to in the Table 1 below:
In Tables 2, 3 and 4, ‘Ab EC50’ refers to the absolute EC50 and ‘Top inhibit’ refers to the percentage inhibition achieved at the highest concentration tested.

A further series is described as follows: in vitro. The conditions noted are these: human, hepatocytes, pH 7.3.
The subject of a further series is OVCAR 3. As to the kind of experiment: CellTiterGlo cell viability assay, OVCAR 3. It counts as cell-based. Conditions: Homo sapiens; for inhibition at 198 µM: OVCAR-3, 72 h, percentage inhibition at the highest concentration tested, read-out: Top Inhibit; for EC50: OVCAR 3, 72 h, read-out: Ab EC50. The essentials:
as §1

The test system of the next series is RL. Briefly: CellTiterGlo cell viability assay, RL. It counts as cell-based. Conditions: Homo sapiens, 72 h; for EC50: read-out: Ab EC50; for inhibition at 198 µM: percentage inhibition at the highest concentration tested, read-out: Top Inh. A digest of the protocol: as §1
For a further series, the system named is MCF-7. Briefly: CellTiterGlo cell viability assay, MCF-7. It counts as cell-based. The conditions noted are these: Homo sapiens, MCF7, 72 h, MCF-7, 72 h; for EC50: read-out: Ab EC50; for inhibition at 198 µM: percentage inhibition at the highest concentration tested, read-out: Top Inhibit. A digest of the protocol: as §1
The next series deals with CCRF-CEM. Briefly: CellTiterGlo cell viability assay, CCRF-CEM. In kind it is cell-based. Conditions: Homo sapiens, 72 h; for EC50: read-out: Ab EC50; for inhibition at 198 µM: percentage inhibition at the highest concentration tested, read-out: Top Inh. A digest of the protocol:
as §1

The next series deals with RPMI-8226. Briefly: CellTiterGlo cell viability assay, RPMI-8226. The conditions noted are these: Homo sapiens, RPMI-8226, 72 h; for EC50: read-out: Ab EC50; for inhibition at 198 µM: percentage inhibition at the highest concentration tested, read-out: Top Inh. It counts as cell-based, Human. A digest of the protocol: as §1
The next series has as its system KG1a cells. Briefly: In vitro cytotoxicity, Annexin V/propidium iodide assay in KG1a cells. It counts as cell-based. The procedure:
The acute myeloid leukaemia (AML) KG1a cell line was maintained in RPMI medium (Invitrogen, Paisley, UK) supplemented with 100 units/mL penicillin, 100 μg/mL streptomycin and 20% foetal calf serum. Cells were subsequently aliquoted (10^5 cells/100 μL) into 96-well plates and were incubated at 37° C. in a humidified normoxic (20% oxygen) or hypoxic (1% or 5% oxygen) atmosphere for 48 h in the presence of clofarabine, or clofarabine diphosphate phosphoramidates of the invention (1×10^−10M-1×10^−6M). In addition, control cultures were carried out to which no drug was added. Cells were subsequently harvested by centrifugation and were analysed by flow cytometry using the Annexin V assay.
Cultured cells were harvested by centrifugation and then resuspended in 195 μL of calcium-rich buffer. Subsequently, 5 μL of Annexin V (Caltag Medsystems, Botolph Claydon, UK) was added to the cell suspension and cells were incubated in the dark for 10 mins prior to washing. Cells were finally resuspended in 190 μL of calcium-rich buffer together with 10 μL of propidium iodide. Apoptosis was assessed by dual-colour immunofluorescent flow cytometry as described previously. Subsequently LD50 values (the dose required to kill 50% of the cells in a culture) were calculated for each nucleoside analogue and diphosphate phosphoramidate.
The data obtained in these experiments were evaluated using one-way ANOVA. All data was confirmed as Gaussian or a Gaussian approximation using the omnibus K2 test. LD50 values were calculated from the non-linear regression and line of best-fit analysis of the sigmoidal dose-response curves. All statistical analyses were performed using Graphpad Prism 6.0 software (Graphpad Software Inc., San Diego, Calif.).
The in vitro drug sensitivity of KG1a cells was assessed using the Annexin V/propidium iodide assay.

Each structure is given as a SMILES string. “And” between values parts separate entries of the source, which are not always exact repeats. Identical values can stand only once. Counter-ions that a name gives are not always drawn. Like-named read-outs stand apart in the source and are kept apart here.

For `C[C@H](NP(=O)(Oc1ccccc1)OP(=O)(O)OC[C@H]1O[C@@H](n2ccc(N)nc2=O)C(F)(F)C1O)C(=O)OCc1ccccc1` (stereo partly drawn) [Example 8, 2′-Deoxy-2′,2′-difluoro-D-cytidine-5′-O-[phenyl(benzoxy-L-alaninyl)] Diphosphate Triethylammonium Salt], the inhibition at 198 µM with MOLT-4 was 84%; in the series with HL-60, 98%; in the series with K562, 29%; with HepG2, 52%; in the series on HT29, 62%; in the series on Mia-Pa-Ca-2 it was 79%. Besides, the inhibition at 198 µM with OVCAR 3 turned out to be 48.5%; in the series on RL, 66.5%; in the series with MCF-7, 52%; in the series with CCRF-CEM it was 99.9%. In addition, the EC50 is 9 nM with MOLT-4 (absolute EC50, numeric values); 80 nM with HL-60 (absolute EC50, numeric values); over 198000 nM with K562 (absolute EC50, numeric values); 83100 nM in the series with HepG2; 480 nM with HT29 (absolute EC50, numeric values); 70 nM in the series on Mia-Pa-Ca-2. For the same molecule, the EC50 in the series with OVCAR 3 (absolute EC50, numeric values) was over 198000 nM; with RL (absolute EC50, numeric values) it was 200 nM; in the series with MCF-7 (absolute EC50, numeric values), 70 nM; in the series on CCRF-CEM (absolute EC50, numeric values), 40 nM. Moreover, the half-life in the series “in vitro” turned out to be 27 min.
With `C[C@H](NP(=O)(Oc1cccc2ccccc12)OP(=O)(O)OC[C@H]1O[C@@H](n2cc(F)c(=O)[nH]c2=O)CC1O)C(=O)OCc1ccccc1` (stereo partly drawn) [Example 4, 5-Fluoro-2′-deoxyuridine-5′-O-[1-naphthyl-(benzoxy-L-alaninyl)] Diphosphate Triethylammonium Salt], the EC50 in the series with HepG2 was over 198000 nM; with HT29 (absolute EC50, numeric values), 250 nM; in the series with Mia-Pa-Ca-2, 110 nM; in the series on RPMI-8226 (absolute EC50, numeric values), 50 nM; in the series on OVCAR 3 (absolute EC50, numeric values), 2810 nM; in the series on MCF-7 (absolute EC50, numeric values), 15800 nM. Besides, in the series with CCRF-CEM (absolute EC50, numeric values), the EC50 worked out at 30 nM. Also, the inhibition at 198 µM in the series with HepG2 was 48%; in the series with HT29, 77%; in the series with Mia-Pa-Ca-2 it was 67%; with RPMI-8226 it was 95%; in the series on OVCAR 3, 67.5%; with MCF-7 it was 66%. For the same molecule, in the series with CCRF-CEM, the inhibition at 198 µM amounted to 97.1%. In the series “in vitro”, this molecule had a half-life of 15 min.
`CCOC(=O)[C@H](C)NP(=O)(Oc1ccccc1)OP(=O)(O)OC[C@H]1O[C@@H](n2cnc3c(N)nc(Cl)nc32)[C@H](F)C1O` (stereo partly drawn) [Example 2, 2-Chloro-9-(2′-Deoxy-2′-fluoro-β-D-arabinofuranosyl)adenine-5′-O-[phenyl(ethoxy-L-alaninyl)] Diphosphate Triethylammonium Salt]: the inhibition at 198 µM in the series on MOLT-4 came to 98%; in the series with HL-60, 98%; in the series on K562 it was 29%; in the series on HT29, 62%; in the series on RPMI-8226, 92%; in the series with OVCAR 3, 48%. Further, the inhibition at 198 µM in the series with RL came out at 65%; in the series with MCF-7 it was 54%; in the series with CCRF-CEM it was 98.7%. Also, the EC50 in the series with MOLT-4 (Table 3 classes) was under 200 nM; with HL-60 (Table 3 classes), under 200 nM; in the series on K562 (Table 3 classes) it was over 10000 nM; in the series on HT29 (Table 3 classes), 200 to 2000 nM; in the series with RPMI-8226 (Table 3 classes), 5000 to 10000 nM; in the series on OVCAR 3 (Table 3 classes), over 10000 nM. Besides, the half-maximal effective concentration (EC50) in the series with RL (Table 3 classes) was 200 to 2000 nM; with MCF-7 (Table 3 classes), 200 to 2000 nM; with CCRF-CEM (Table 3 classes), under 200 nM. In the series on KG1a cells (5% oxygen, in words), the “change of potency (mean LD50) under hypoxic versus normoxic conditions” value is recorded as “reduction in potency was not observed”. Also, in the series on KG1a cells (48 h, hypoxic (5% O2)), the “Hypoxia Mean LD50” value was 95.0 nM. In addition, the “Mean LD50 (Normoxia Mean LD50)” value in the series with KG1a cells (48 h, normoxic (20% oxygen)) amounted to 71.0 nM. Moreover, in the series on KG1a cells (normoxic), the “mean LD50” value is 43.8 nM and 71 nM. In addition, the “Ratio Normoxia/Hypoxia” value in the series on KG1a cells (ratio of mean LD50 values) was 74.7. This molecule gave a half-life in the series “in vitro” of 20 to 100 min.
